Assay results reported in ChEMBL document CHEMBL1125915, “Novel alkaloids from the tropical plant Ancistrocladus abbreviatus inhibit cell killing by HIV-1 and HIV-2” (J Med Chem, 1991).

How the values were obtained:
CEM-SS [1] = test: Compound tested for inhibition of P24 (P24 antigen) in HIV-infected CEM-SS cells; Inhibited; format: functional, cell-based; details: Homo sapiens
CEM-SS [2] = test: Compound tested for inhibition of syncytium-forming units (SFU) in HIV-infected CEM-SS cells; Inhibited; format: functional, cell-based; details: Homo sapiens
[3] = molecular target: Human immunodeficiency virus type 1 reverse transcriptase (Human immunodeficiency virus 1) (UniProt Q72547); test: Compound tested for inhibition of RT (reverse transcriptase) in HIV-infected CEM-SS cells; Inhibited; format: cell-based
CEM-SS [4] = test: Compound tested for inhibition of the cytopathic effects of HIV-1 upon CEM-SShuman lymphoblastoid target cells in vitro; format: functional, cell-based; details: Homo sapiens
CEM-SS [5] = test: Compound tested for cytotoxic effect on uninfected CEM-SS human lymphoblastoid target cell; format: functional, cell-based

Row | Compound | inhibition (CEM-SS [1]) | inhibition (CEM-SS [2]) | inhibition [3] | EC50 (CEM-SS [4]) | IC50 (CEM-SS [5])
1 | COc1cc(C)cc2c(-c3c(O)cc(O)c4c3C[C@H](C)N[C@H]4C)cc(-c3cc(-c4c(O)cc(O)c5c4C[C@H](C)N[C@H]5C)c4cc(C)cc(OC)c4c3O)c(O)c12 (stereo in doubt; 1) [listing 1 of 2 here] | Inhibited | Inhibited | Inhibited | – | –
2 | COc1cc(C)cc2c(-c3c(O)cc(O)c4c3C[C@H](C)N[C@H]4C)cc(-c3cc(-c4c(O)cc(O)c5c4C[C@H](C)N[C@H]5C)c4cc(C)cc(OC)c4c3O)c(O)c12 (stereo in doubt; 2) | Inhibited | Inhibited | Inhibited | – | –
3 | COc1cc(C)cc2c(-c3c(O)cc(O)c4c3C[C@H](C)N[C@H]4C)cc(-c3cc(-c4c(O)cc(O)c5c4C[C@H](C)N[C@H]5C)c4cc(C)cc(OC)c4c3O)c(O)c12 (stereo in doubt; 1) [listing 2 of 2 here] | – | – | – | 20 µM | 200 µM
